Columns and labels:
[1] = target: Serine/threonine-protein kinase Chk2 (Homo sapiens, UniProt O96017); assay: NanoBRET (SGC-Frankfurt) (CHEK2)
[2] = target: Serine/threonine-protein kinase B-raf (Homo sapiens, UniProt P15056); assay: NanoBRET (SGC-Frankfurt) (BRAF)
[3] = target: Serine/threonine-protein kinase 38-like (Homo sapiens, UniProt Q9Y2H1); assay: NanoBRET (SGC-Frankfurt) (STK38L)
[4] = tested on: Tyrosine-protein kinase ABL1 (Homo sapiens), P00519 [H396P]; conditions: Compound concentration 100.0 nM
[5] = target: Serine/threonine-protein kinase BRSK1 (Homo sapiens) (UniProt Q8TDC3); conditions: Compound concentration 100.0 nM
[6] = target: Calcium/calmodulin-dependent protein kinase type II subunit alpha (Homo sapiens) (UniProt Q9UQM7); conditions: Compound concentration 100.0 nM
[7] = target: Cyclin-dependent kinase 19 (Homo sapiens) (UniProt Q9BWU1); conditions: Compound concentration 100.0 nM
Chain of Cyclin-dependent kinase 19 (Homo sapiens) (Q9BWU1 whole entry): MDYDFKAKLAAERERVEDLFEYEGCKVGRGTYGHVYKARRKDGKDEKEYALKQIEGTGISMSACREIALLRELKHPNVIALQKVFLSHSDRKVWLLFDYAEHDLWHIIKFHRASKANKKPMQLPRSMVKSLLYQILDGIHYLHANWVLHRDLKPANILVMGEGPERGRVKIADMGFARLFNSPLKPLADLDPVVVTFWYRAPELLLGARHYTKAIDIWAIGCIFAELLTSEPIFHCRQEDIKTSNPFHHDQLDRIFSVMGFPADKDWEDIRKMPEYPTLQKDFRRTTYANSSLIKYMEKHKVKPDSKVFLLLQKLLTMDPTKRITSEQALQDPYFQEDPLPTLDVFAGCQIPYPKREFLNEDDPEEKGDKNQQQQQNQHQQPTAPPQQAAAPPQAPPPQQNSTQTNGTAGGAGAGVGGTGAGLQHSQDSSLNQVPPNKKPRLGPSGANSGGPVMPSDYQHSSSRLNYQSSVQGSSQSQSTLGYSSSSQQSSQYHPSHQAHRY

[8] = target: Cyclin-dependent kinase 2 (Homo sapiens) (UniProt P24941); conditions: Compound concentration 100.0 nM
[9] = target: Casein kinase I isoform gamma-1 (Homo sapiens) (UniProt Q9HCP0); conditions: Compound concentration 100.0 nM
Chain of Casein kinase I isoform gamma-1 (Homo sapiens) (Q9HCP0 whole entry, looked up, canonical isoform): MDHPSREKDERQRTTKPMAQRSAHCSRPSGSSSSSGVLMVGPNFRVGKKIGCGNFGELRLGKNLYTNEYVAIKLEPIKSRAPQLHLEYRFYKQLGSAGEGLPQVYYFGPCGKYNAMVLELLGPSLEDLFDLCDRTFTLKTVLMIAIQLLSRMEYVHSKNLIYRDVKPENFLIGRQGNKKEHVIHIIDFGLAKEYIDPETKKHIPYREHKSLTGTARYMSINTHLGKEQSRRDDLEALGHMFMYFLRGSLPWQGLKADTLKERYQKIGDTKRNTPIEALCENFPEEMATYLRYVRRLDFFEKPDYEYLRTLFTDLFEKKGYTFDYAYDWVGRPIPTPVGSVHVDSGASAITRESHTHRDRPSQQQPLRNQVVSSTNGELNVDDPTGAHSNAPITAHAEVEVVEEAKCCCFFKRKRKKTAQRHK

[10] = tested on: Fibroblast growth factor receptor 3 (Homo sapiens), P22607 [G697C]; conditions: Compound concentration 100.0 nM
[11] = target: G protein-coupled receptor kinase 4 (Homo sapiens) (UniProt P32298); conditions: Compound concentration 100.0 nM
Chain of G protein-coupled receptor kinase 4 (Homo sapiens) (P32298 whole entry, looked up): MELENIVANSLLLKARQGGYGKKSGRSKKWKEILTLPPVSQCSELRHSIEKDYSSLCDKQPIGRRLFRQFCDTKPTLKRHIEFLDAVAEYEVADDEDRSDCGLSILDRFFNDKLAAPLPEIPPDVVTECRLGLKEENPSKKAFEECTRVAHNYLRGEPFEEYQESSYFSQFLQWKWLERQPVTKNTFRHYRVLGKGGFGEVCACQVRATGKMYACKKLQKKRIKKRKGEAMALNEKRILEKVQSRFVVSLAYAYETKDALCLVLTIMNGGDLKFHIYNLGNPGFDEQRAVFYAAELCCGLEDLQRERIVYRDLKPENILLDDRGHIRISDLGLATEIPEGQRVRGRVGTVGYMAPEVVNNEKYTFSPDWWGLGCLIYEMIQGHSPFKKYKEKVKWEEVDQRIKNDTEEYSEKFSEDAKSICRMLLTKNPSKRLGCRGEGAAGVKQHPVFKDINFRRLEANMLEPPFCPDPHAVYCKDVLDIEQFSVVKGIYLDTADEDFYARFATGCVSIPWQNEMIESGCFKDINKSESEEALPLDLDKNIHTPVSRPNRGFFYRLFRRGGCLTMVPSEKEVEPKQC

[12] = target: Mitogen-activated protein kinase kinase kinase 11 (Homo sapiens) (UniProt Q16584); conditions: Compound concentration 100.0 nM
Chain of Mitogen-activated protein kinase kinase kinase 11 (Homo sapiens) (Q16584 whole entry, looked up): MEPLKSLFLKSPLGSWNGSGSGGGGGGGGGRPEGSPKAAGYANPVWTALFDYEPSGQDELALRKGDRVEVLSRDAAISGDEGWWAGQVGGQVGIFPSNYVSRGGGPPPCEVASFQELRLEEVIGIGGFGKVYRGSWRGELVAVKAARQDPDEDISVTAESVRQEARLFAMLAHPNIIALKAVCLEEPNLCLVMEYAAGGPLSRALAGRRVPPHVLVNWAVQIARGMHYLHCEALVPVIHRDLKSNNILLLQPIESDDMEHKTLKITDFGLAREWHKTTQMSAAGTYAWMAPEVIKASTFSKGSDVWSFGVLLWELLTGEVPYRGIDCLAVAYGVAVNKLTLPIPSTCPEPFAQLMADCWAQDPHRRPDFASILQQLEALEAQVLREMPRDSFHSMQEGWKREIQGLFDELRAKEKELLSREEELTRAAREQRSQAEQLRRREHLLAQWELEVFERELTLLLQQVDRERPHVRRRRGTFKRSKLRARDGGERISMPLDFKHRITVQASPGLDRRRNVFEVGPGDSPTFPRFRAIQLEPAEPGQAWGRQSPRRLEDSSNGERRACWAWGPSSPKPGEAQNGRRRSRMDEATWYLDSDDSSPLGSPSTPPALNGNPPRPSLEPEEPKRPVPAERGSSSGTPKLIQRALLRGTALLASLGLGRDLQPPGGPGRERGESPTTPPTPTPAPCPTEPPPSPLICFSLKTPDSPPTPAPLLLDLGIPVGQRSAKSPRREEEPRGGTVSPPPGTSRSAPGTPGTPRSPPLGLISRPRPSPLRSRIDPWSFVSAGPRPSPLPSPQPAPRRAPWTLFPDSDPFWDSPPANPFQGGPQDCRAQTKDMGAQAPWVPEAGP

[13] = target: Serine/threonine-protein kinase Nek3 (Homo sapiens) (UniProt P51956); conditions: Compound concentration 100.0 nM
[14] = target: Serine/threonine-protein kinase NLK (Homo sapiens) (UniProt Q9UBE8); conditions: Compound concentration 100.0 nM
Chain of Serine/threonine-protein kinase NLK (Homo sapiens) (Q9UBE8 whole entry): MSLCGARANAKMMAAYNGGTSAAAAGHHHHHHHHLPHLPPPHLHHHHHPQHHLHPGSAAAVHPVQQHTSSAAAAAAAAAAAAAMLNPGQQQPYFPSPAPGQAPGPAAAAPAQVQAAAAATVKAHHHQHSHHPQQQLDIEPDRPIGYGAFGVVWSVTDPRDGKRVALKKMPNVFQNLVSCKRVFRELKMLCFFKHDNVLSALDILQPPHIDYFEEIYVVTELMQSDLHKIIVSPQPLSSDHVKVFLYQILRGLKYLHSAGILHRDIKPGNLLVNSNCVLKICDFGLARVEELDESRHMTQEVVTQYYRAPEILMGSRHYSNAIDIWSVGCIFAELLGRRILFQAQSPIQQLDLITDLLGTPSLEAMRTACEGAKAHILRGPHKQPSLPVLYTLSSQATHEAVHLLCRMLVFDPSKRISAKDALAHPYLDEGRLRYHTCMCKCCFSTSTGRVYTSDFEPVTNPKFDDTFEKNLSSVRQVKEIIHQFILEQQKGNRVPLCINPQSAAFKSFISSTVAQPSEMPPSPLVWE

[15] = tested on: Proto-oncogene tyrosine-protein kinase receptor Ret (Homo sapiens), P07949 [V804L]; conditions: Compound concentration 100.0 nM
Chain of Proto-oncogene tyrosine-protein kinase receptor Ret (Homo sapiens), P07949 [V804L] (P07949 whole entry V804L): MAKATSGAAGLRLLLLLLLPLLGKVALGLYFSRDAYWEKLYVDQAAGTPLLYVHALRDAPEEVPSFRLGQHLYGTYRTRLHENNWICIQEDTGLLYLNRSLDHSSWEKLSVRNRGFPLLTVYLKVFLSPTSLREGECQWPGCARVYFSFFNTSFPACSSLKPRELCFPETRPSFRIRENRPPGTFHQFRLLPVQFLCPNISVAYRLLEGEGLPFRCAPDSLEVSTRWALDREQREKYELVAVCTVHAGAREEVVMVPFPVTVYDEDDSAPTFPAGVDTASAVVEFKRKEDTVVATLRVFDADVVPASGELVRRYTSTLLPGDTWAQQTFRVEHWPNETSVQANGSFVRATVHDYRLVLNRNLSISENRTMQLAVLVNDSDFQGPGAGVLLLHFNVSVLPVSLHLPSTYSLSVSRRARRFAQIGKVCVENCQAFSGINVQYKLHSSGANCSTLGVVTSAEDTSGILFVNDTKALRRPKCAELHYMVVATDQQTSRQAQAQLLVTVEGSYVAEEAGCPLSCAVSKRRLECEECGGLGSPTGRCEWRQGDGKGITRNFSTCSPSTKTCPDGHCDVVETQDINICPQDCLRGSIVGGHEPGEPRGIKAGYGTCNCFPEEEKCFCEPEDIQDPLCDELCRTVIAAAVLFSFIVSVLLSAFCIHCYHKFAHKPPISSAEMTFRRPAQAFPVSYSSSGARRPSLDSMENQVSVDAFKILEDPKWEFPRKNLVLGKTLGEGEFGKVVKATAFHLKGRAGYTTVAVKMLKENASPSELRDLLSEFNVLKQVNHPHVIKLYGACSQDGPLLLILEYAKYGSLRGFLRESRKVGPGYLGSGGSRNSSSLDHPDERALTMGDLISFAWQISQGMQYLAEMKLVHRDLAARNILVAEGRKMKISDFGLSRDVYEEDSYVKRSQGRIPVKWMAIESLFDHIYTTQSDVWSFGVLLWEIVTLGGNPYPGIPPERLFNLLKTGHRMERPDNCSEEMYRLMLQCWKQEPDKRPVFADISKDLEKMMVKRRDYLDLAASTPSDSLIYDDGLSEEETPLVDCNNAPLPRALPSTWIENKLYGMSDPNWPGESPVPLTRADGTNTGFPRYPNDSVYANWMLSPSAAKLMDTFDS

[16] = target: Serine/threonine-protein kinase SIK2 (Homo sapiens) (UniProt Q9H0K1); conditions: Compound concentration 100.0 nM
Chain of Serine/threonine-protein kinase SIK2 (Homo sapiens) (Q9H0K1 whole entry, looked up): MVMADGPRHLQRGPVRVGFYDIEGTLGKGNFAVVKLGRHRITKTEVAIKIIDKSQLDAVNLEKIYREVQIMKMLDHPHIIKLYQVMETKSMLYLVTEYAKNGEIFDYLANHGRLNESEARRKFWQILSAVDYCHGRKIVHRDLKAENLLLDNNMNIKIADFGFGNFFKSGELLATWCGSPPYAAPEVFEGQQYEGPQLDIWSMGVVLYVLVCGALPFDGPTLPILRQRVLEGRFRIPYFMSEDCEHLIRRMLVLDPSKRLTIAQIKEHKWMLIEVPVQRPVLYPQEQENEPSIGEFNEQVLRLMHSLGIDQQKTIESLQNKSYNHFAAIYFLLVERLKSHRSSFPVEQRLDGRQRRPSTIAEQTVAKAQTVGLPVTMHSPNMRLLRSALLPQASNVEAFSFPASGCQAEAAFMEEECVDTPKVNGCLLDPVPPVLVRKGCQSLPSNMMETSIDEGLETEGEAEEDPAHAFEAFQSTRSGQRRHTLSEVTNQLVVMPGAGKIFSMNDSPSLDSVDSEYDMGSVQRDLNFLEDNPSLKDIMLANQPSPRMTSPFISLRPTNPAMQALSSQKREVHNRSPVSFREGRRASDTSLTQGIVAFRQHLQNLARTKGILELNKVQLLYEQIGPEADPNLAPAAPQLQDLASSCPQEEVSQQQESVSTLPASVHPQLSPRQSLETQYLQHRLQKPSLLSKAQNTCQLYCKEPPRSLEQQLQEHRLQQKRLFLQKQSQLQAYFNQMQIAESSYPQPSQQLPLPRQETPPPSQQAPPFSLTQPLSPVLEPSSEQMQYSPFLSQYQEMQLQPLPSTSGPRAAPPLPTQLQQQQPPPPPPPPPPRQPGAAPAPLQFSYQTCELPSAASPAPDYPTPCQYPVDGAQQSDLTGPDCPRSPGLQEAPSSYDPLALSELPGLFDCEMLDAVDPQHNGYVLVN

[17] = target: 5-hydroxytryptamine receptor 1B (Homo sapiens) (UniProt P28222); conditions: Compound concentration 10.0 uM
[18] = target: 5-hydroxytryptamine receptor 1D (Homo sapiens) (UniProt P28221); conditions: Compound concentration 10.0 uM
[19] = target: 5-hydroxytryptamine receptor 2A (Homo sapiens) (UniProt P28223); conditions: Compound concentration 10.0 uM
[20] = target: 5-hydroxytryptamine receptor 2B (Homo sapiens) (UniProt P41595); conditions: Compound concentration 10.0 uM
[21] = target: 5-hydroxytryptamine receptor 5A (Homo sapiens) (UniProt P47898); conditions: Compound concentration 10.0 uM
[22] = target: 5-hydroxytryptamine receptor 6 (Homo sapiens) (UniProt P50406); conditions: Compound concentration 10.0 uM
[23] = target: D(1A) dopamine receptor (Homo sapiens) (UniProt P21728); conditions: Compound concentration 10.0 uM
[24] = target: D(2) dopamine receptor (Homo sapiens) (UniProt P14416); conditions: Compound concentration 10.0 uM
[25] = target: D(4) dopamine receptor (Homo sapiens) (UniProt P21917); conditions: Compound concentration 10.0 uM
[26] = target: D(1B) dopamine receptor (Homo sapiens) (UniProt P21918); conditions: Compound concentration 10.0 uM
[27] = target: Sodium-dependent serotonin transporter (Homo sapiens) (UniProt P31645); conditions: Compound concentration 10.0 uM
[28] = target: Mu-type opioid receptor (Homo sapiens) (UniProt P35372); conditions: Compound concentration 10.0 uM
[29] = target: Delta-type opioid receptor (Homo sapiens) (UniProt P41143); conditions: Compound concentration 10.0 uM
[30] = target: Kappa-type opioid receptor (Homo sapiens) (UniProt P41145); conditions: Compound concentration 10.0 uM
[31] = target: T1, GABA-A receptor; anion channel (Rattus norvegicus) (UniProt O09028+P15431+P18506+P18508+P19969+P20236+P23574+P23576+P28471+P28473+P30191+P62813+P63079+P63138+Q91ZM7+Q9ES14); conditions: Compound concentration 10.0 uM
[32] = target: Histamine H1 receptor (Homo sapiens) (UniProt P35367); conditions: Compound concentration 10.0 uM
[33] = target: Histamine H3 receptor (Homo sapiens) (UniProt Q9Y5N1); conditions: Compound concentration 10.0 uM
[34] = target: Histamine H4 receptor (Homo sapiens) (UniProt Q9H3N8); conditions: Compound concentration 10.0 uM
[35] = target: Alpha-1A adrenergic receptor (Homo sapiens) (UniProt P35348); conditions: Compound concentration 10.0 uM
[36] = target: Alpha-2A adrenergic receptor (Homo sapiens) (UniProt P08913); conditions: Compound concentration 10.0 uM
[37] = target: Alpha-2B adrenergic receptor (Homo sapiens) (UniProt P18089); conditions: Compound concentration 10.0 uM
[38] = target: Alpha-2C adrenergic receptor (Homo sapiens) (UniProt P18825); conditions: Compound concentration 10.0 uM
[39] = target: Beta-2 adrenergic receptor (Homo sapiens) (UniProt P07550); conditions: Compound concentration 10.0 uM
[40] = target: T1, GABA-A receptor; anion channel (Rattus norvegicus); conditions: Compound concentration 10.0 uM; remark: listed apart in the source
[41] = target: Sigma intracellular receptor 2 (Homo sapiens) (UniProt Q5BJF2); conditions: Compound concentration 10.0 uM
[42] = target: Sigma non-opioid intracellular receptor 1 (Homo sapiens) (UniProt Q99720); conditions: Compound concentration 10.0 uM
[43] = target: T2, Mitogen-activated protein kinase 11 (Homo sapiens, UniProt Q15759); assay: NanoBRET (SGC-Frankfurt) (MAPK11)
[44] = target: T2, Mitogen-activated protein kinase 11; conditions: Compound concentration 100.0 nM

CS(=O)(=O)N1CCCC(NC(=O)[C@H](CCC2CCCCC2)NC(=O)c2ccc(CNC(=O)c3cnc4ccccn34)cc2)C1 (some centres not stated) [SR-302] showed an IC50 [1] greater than 25 µM, an IC50 [2] greater than 25 µM and an IC50 [3] greater than 25 µM. The residual activity [4] was 100%, the residual activity [5] was 72% and the residual activity [6] was 100%. For the same compound, the residual activity [7] was 100%, the residual activity [8] was 88% and the residual activity [9] was 100%. For the same compound, the residual activity [10] was 86%, the residual activity [11] was 100% and the residual activity [12] was 100%. It also gave a residual activity [13] of 100%, a residual activity [14] of 100% and a residual activity [15] of 98%. The residual activity [16] was 100%, the inhibition [17] was 10.9% and the inhibition [18] was 18.9%. It also gave an inhibition [19] of 3.03%, an inhibition [20] of 12.2% and an inhibition [21] of 3.1%. The inhibition [22] was 18.2%, the inhibition [23] was -8.61% and the inhibition [24] was 7.14%. The inhibition [25] was 3.78%, the inhibition [26] was 23.5% and the inhibition [27] was 19.8%. For the same compound, the inhibition [28] was 45.3%, the inhibition [29] was 8.18% and the inhibition [30] was 20.1%. The inhibition [31] was 31.9%, the inhibition [32] was 3.62% and the inhibition [33] was 0.32%. The inhibition [34] was -7.56%, the inhibition [35] was 34.9% and the inhibition [36] was 7.22%. The inhibition [37] was 13.5%, the inhibition [38] was 5.25% and the inhibition [39] was 16.3%. For the same compound, the inhibition [40] was 15.8%, the inhibition [41] was 32% and the inhibition [42] was 32%.
CS(=O)(=O)N1CCCC(NC(=O)[C@H](CCC2CCCCC2)NC(=O)c2ccc(CNc3ncnc4c3nnn4-c3ccccc3)cc2)C1 (some centres not stated) [SR-301] was tested, and the IC50 [43] was 1.63 µM (not active), the residual activity [4] was 100% and the residual activity [5] was 100%. It also gave a residual activity [6] of 100%, a residual activity [7] of 90% and a residual activity [8] of 100%. For the same compound, the residual activity [9] was 100%, the residual activity [10] was 83% and the residual activity [11] was 100%. It also gave a residual activity [12] of 92%, a residual activity [13] of 100% and a residual activity [14] of 100%. For the same compound, the residual activity [44] was 100%, the residual activity [15] was 83% and the residual activity [16] was 86%.
